From US12162861B2, “Dopamine D3 receptor selective antagonists/partial agonists; method of making; and use thereof” (THE UNITED STATES OF AMERICA, AS REPRESENTED BY THE …, priority 2016, dated 2024)
Entries after “also recorded” stand apart in the source; their conditions may differ.

Experiments:
Long-Evans rats = assay: Reinstatement of drug-seeking induced by oxycodone priming in rats; format: in vivo, rat; details: 5-15 mg/kg i.p., oxycodone priming 1 mg/kg i.p.
Procedure: Experiment 3. […] After completion of self-administration training, three additional groups of animals were exposed to the extinction conditions, in which cocaine was replaced by saline, and the cocaine-associated cue-light and tone were turned off. Active lever-pressing led only to saline infusion. Daily 3 hr extinction sessions for each rat continued until lever presses ≤10 times per 3 h session for at least 3 consecutive days. […] Fifteen min after injection, they were given a priming injection of oxycodone (1 mg/kg i.p.) and immediately put into the self-administration chambers. Animals were allowed to press levers for another extinction session and their responses on the levers were recorded.

[1] = Phase I metabolic stability in rat liver microsomes; format: in vitro ADME; details: FIG. 2; 10 μM, 0.5 mg/mL microsomes
Procedure: Methods: Phase I metabolic stability assay was conducted in rat and rhesus monkey liver microsomes. For phase I metabolism, the reaction was carried out with 100 mM potassium phosphate buffer, pH 7.4, in the presence of NADPH regenerating system (1.3 mM NADPH, 3.3 mM glucose 6-phosphate, 3.3 mM MgCl2, 0.4 U/mL glucose-6-phosphate dehydrogenase, 50 μM sodium citrate). Reactions in triplicate were initiated by addition of the liver microsomes to the incubation mixture (compound final concentration was 10 μM; 0.5 mg/mL microsomes). Negative controls in the absence of cofactors were carried out to determine the specific cofactor-free degradation. Compound disappearance was monitored via LC/MS/MS. Chromatographic analysis was performed using an Accela™ ultra high-performance system consisting of an analytical pump, and an autosampler coupled with TSQ Vantage mass spectrometer (Thermo Fisher Scientific Inc., Waltham MA). […] The mobile phase used was composed of 0.1% Formic Acid in Acetonitrile and 0.1% Formic Acid in H2O with gradient elution, starting with 10% (organic) linearly increasing to 99% up to 2 min, maintaining at 99% (2-2.5 min) and re-equilibrating to 10% by 2.7 min. The total run time for each analyte was 5.0 min.

human dopamine D3R = biological target: T1, human dopamine D3R (Homo sapiens, UniProt P35462); assay: D3R mitogenesis assay in CHO cells; format: cell-based; details: stimulation of mitogenesis, CHO cells with human D3R; read-out: Agonist EC50 ± SEM
T1 construct: expressed in transfected cells; host or cells: CHO

squirrel monkeys [2] = assay: Cue-induced reinstatement of drug seeking in squirrel monkeys; format: in vivo, squirrel monkey (Saimiri sciureus)
Excerpt: Cue-induced reinstatement: After the completion of priming-induced reinstatement testing, the monkeys were returned to baseline THC self-administration for 5-10 sessions. In subsequent extinction sessions, drug injections and all cues associated with drug injections were removed. This means that catheters were not connected to a pump and monkeys were not receiving infusions or visual cue presentations. After two or three days of extinction, we tested for cue-induced reinstatement of extinguished drug-seeking behavior after vehicle pretreatment (i.m.) by allowing delivery of a saline injection paired with the drug-associated cues. […] Each reinstatement test was a single session, which was preceded and followed by extinction session(s) with vehicle pretreatment (i.m.) 30 min before the sessions.
Δ^9-tetrahydrocannabinol (THC, NIDA Drug Supply Program, Bethesda, MD, USA) was dissolved in a vehicle containing 1% Tween 80, 1% ethanol, and saline to obtain stock solution (0.4 mg/ml) and further diluted with saline. In the reinstatement tests, THC was injected i.v. (1 ml/kg) immediately before the session.

squirrel monkeys [3] = assay: THC self-administration in squirrel monkeys (FR10); format: in vivo, squirrel monkey (Saimiri sciureus); details: FR10, 1, 3, and 10 mg/kg i.m.
Excerpt: Subjects: Seven adult male squirrel monkeys (Saimiri sciureus) weighing 0.8 to 1.1 kg were housed in individual cages in a temperature- and humidity-controlled room with unrestricted access to water. […] The monkeys were trained to self-administer either THC or food pellets prior to the study. Monkeys were fed (approximately two hours after the session) a daily food ration consisting of biscuits of high protein monkey diet (Lab Diet 5045, PMI Nutrition International, Richmond, Indiana). The number of biscuits (8-14) was determined for each monkey individually to maintain their body weights at a constant level throughout the study. […]
Apparatus: Experimental chambers and other apparatus used in this study were the same as previously described (Justinova et al. 2003). […] The chair contained one response lever (Med Associates., USA) mounted on a transparent front wall; each press on the lever with a force greater than 0.2 N produced an audible click and was recorded as a response. […]
Self-administration procedure: Daily one-hour experimental sessions were typically conducted from Monday through Friday with each monkey. […] Before the start of the session, catheters were flushed with 1 ml of saline and one injection was delivered (calculated to fill the dead space of the catheter which was about 0.2 ml). […]

T1 sequence (P35462 whole entry): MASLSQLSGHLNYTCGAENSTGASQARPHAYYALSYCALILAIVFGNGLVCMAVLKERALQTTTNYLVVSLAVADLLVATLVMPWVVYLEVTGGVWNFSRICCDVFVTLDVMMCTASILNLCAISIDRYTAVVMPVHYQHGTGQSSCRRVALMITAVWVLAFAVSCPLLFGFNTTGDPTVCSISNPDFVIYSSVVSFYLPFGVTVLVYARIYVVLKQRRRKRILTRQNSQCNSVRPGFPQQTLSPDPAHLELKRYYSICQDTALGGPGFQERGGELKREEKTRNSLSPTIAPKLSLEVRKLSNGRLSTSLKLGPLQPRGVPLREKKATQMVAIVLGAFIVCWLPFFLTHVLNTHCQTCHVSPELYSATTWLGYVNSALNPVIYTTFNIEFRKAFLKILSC

CCc1cc(Cl)c(OC)c(N2CCN(CC(O)CCNC(=O)c3cc4ccccc4[nH]3)CC2)c1 (racemic) [Compound 29, N-(4-(4-(3-chloro-5-ethyl-2-methoxyphenyl)piperazin-1-yl)-3-hydroxybutyl)-1H-indole-2-carboxamide]
oxycodone-induced reinstatement to drug seeking (Long-Evans rats; FIG. 4): blocked oxycodone-induced reinstatement to drug seeking
oxycodone-induced reinstatement to drug seeking (Long-Evans rats; FIG. 4, listed as (±)-29): attenuating effects
metabolic stability in rat liver microsomes versus PG648 [1]: improved metabolic stability as compared to Compound 1; also recorded: significantly more stable than PG648
EC50 (human dopamine D3R): > 8.3 µM
cue-induced reinstatement of drug seeking behavior (squirrel monkeys [2]): attenuated cue-induced reinstatement of drug seeking behavior
THC self-administration (squirrel monkeys [3]; FIG. 7): attenuates THC self-administration; also recorded: dose-dependently blocked THC self-administration
THC self-administration (squirrel monkeys [3]; FIG. 7, listed as (±)-29): attenuation of THC self-administration
